# According to ChEMBL document CHEMBL5096153, “Spirocyclic Scaffolds in Medicinal Chemistry” (J Med Chem, 2021):
# Key:
# [1] = Octanol-water partition coefficient, log P of the compound by LC-MS/MS analysis; type: physicochemical
# [2] = Metabolic stability in human liver microsomes assessed as compound remaining; type: ADME, Microsome
# [3] = Inhibition of Plasmodium vivax SHMT
# [4] = molecular target: NF-kappa-B essential modulator (Homo sapiens, UniProt Q9Y6K9); assay: Binding affinity to full-length human NEMO (1 to 419 residues) assessed as dissociation constant
# Chain of NF-kappa-B essential modulator (Q9Y6K9 whole entry, the tested form may be a part): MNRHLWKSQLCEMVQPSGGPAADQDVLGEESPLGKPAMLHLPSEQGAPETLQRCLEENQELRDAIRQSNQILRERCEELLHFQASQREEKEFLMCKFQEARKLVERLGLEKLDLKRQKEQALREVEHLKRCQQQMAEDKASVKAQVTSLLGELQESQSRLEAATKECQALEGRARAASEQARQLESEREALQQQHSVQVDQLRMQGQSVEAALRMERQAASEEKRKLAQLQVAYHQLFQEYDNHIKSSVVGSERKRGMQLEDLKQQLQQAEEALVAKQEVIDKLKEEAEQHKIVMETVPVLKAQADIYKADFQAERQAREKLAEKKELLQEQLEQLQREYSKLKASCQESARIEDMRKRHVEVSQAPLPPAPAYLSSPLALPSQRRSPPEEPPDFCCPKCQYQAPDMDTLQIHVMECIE
# [5] = molecular target: T1, Retinoic acid receptor RXR-alpha (Homo sapiens) (UniProt P19793); assay: Agonist activity at RXRalpha (unknown origin) using fluorescein-D22 as substrate by fluorescence polarization assay relative to control
# T1 sequence (whole entry): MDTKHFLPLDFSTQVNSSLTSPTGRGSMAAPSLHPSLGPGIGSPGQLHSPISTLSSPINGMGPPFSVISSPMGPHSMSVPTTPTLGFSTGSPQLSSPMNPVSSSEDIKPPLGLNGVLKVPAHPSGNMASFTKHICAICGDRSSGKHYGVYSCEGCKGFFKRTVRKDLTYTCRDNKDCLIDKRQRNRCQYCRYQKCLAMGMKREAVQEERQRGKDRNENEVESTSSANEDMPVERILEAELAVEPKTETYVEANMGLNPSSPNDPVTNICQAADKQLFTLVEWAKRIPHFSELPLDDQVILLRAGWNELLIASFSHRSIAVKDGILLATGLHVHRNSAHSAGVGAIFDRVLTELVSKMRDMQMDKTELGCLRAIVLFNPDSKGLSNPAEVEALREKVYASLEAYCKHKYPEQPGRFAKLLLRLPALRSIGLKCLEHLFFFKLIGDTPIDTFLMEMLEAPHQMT
# [6] = Selectivity ratio of Ki for rat liver Sigma2 receptor to Ki for Guinea pig brain Sigma1 receptor
# [7] = molecular target: T2, Retinoic acid receptor RXR-alpha (Homo sapiens, UniProt P19793); assay: Agonist activity at RXRalpha (unknown origin) using fluorescein-D22 as substrate by fluorescence polarization assay
# T2 sequence (P19793 whole entry): T1 sequence (whole entry)
# Influenza A virus = assay: Antiviral activity against wild-type Influenza A virus A/M2 assessed as viral growth inhibition; type: functional, organism-based
# [8] = molecular target: Phosphoglycerate mutase 1 (Homo sapiens, UniProt P18669); assay: Inhibition of PGAM1 in human MDA-MB-231 cells; type: cell-based
# Chain of Phosphoglycerate mutase 1 (P18669 whole entry): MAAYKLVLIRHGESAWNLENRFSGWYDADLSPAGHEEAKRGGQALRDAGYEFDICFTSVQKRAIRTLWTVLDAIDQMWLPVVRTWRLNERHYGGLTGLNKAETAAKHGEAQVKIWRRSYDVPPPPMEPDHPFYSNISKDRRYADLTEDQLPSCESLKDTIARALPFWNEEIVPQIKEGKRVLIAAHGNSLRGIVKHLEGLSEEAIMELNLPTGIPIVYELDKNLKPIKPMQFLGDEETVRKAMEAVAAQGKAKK
# MDA-MB-231 = assay: Cytotoxicity against human MDA-MB-231 cells assessed as cell growth inhibition; type: functional, cell-based
# [9] = AUC (0 to 4 hrs) in rat at 5 mg/kg, po; type: ADME, organism-based; design: time < 4 hr, dose 5 mg/kg, route po; conditions: in vivo
# [10] = Volume of distribution in rat at 2 mg/kg, iv; type: ADME, organism-based; conditions: in vivo
# [11] = Cmax in rat plasma at 5 mg/kg, po; type: ADME, organism-based; design: dose 5 mg/kg, route po
# [12] = AUC (0 to infinity) in rat plasma at 5 mg/kg, po; type: ADME, organism-based; design: time infinity, dose 5 mg/kg, route po
# [13] = Cytotoxicity against human HUVEC cells assessed as reduction in cell viability; type: toxicity, cell-based
smiles,measurement,setting,value
O=C1Nc2ccccc2C12Cc1ccccc1B(O)O2 (centres undefined),logP,[1],< 4
same,Stability,[2],> 80%
Cc1[nH]nc2c1[C@]1(C(C#N)=C(N)O2)c2cc(N3CCC(CC(=O)O)CC3)cc(F)c2CC1(C)C,IC50,[3],43 nM
CN1C(=O)C2(Cc3ccccc3B(O)O2)c2ccccc21 (centres undefined),logP,[1],< 4
same,Stability,[2],> 80%
O=C1Nc2ccc(F)cc2C12Cc1ccccc1B(O)O2 (centres undefined),logP,[1],< 4
same,Stability,[2],> 80%
Cc1ccc([C@@H]2[C@H]3C=C(C=O)[C@@H](c4ccc(C)cc4)[C@H]([N+](=O)[O-])[C@@H]3C[C@]23C(=O)N(C)c2ccccc23)cc1,Kd,[4],190 nM
CC1(C)CCC(C)(C)c2cc3c(cc21)CCC1(CCc2cc(C(=O)O)ccc2O1)O3 (stereo in doubt; form 2) [listing 1 of 2 here],Efficacy,[5],26%
c1ccc(CN2CCC3(CCCc4ccccc43)CC2)cc1,Ratio Ki,[6],22
CC1(C)CCC(C)(C)c2cc3c(cc21)CCC1(CCc2cc(C(=O)O)ccc2O1)O3 (racemic) [listing 1 of 2 here],EC50,[7],730 nM
Cc1ccc([C@@H]2[C@H]3C=C(C=O)[C@@H](c4ccc(C)cc4)[C@H]([N+](=O)[O-])[C@@H]3C[C@@]23C(=O)N(C)c2ccccc23)cc1,Kd,[4],80 nM
O=C1Nc2cc(Cl)ccc2C12Cc1ccccc1B(O)O2 (centres undefined),logP,[1],< 4
same,Stability,[2],> 80%
NC1CCC2(CCCC2)CC1,IC50,Influenza A virus,3300 nM
Cc1[nH]nc2c1C1(C(C#N)=C(N)O2)c2cc(N3CCC(CC(=O)O)CC3)cc(F)c2CC1(C)C (racemic),IC50,[3],61 nM
c1ccc(CN2CC[Si]3(CCCc4ccccc43)CC2)cc1,Ratio Ki,[6],221
CC1(C)CCC(C)(C)c2cc3c(cc21)CCC1(CCc2cc(C(=O)O)ccc2O1)O3 (racemic) [listing 2 of 2 here],Efficacy,[5]; filed as agonist,53%
C#CCCCC(=O)OC(C)(C)C1CCC2(CO2)C(OC(=O)N[C@@H](Cc2c[nH]c3ccccc23)C(=O)OCc2ccccc2)C1 (some centres undefined),IC50,[8],33000 nM
same,IC50,MDA-MB-231,19000 nM
CC1(C)CCC(C)(C)c2cc3c(cc21)CCC1(CCc2cc(C(=O)O)ccc2O1)O3 (stereo in doubt; form 2) [listing 2 of 2 here],EC50,[7],1200 nM
NC1CC[Si]2(CCCC2)CC1,IC50,Influenza A virus,7800 nM
CC1(C)CCC(C)(C)c2cc3c(cc21)CCC1(CCc2cc(C(=O)O)ccc2O1)O3 (stereo in doubt; form 1) [listing 1 of 2 here],Efficacy,[5]; filed as agonist,54%
COc1ccc2nc3c(nc2c1)O[C@@H]1C[C@H]2C(=O)N[C@]4(C(=O)NS(=O)(=O)C5(C)CC5)C[C@H]4/C=C\CCCCC[C@H](NC(=O)O[C@@H]4CCC[C@H]4CCCCC3)C(=O)N2C1,AUC(0-t) at 4 h,[9],0.77 µM·h
same,Vd,[10],4 L/kg
CC1(C)CCC(C)(C)c2cc3c(cc21)CCC1(CCc2cc(C(=O)O)ccc2O1)O3 (stereo in doubt; form 1) [listing 2 of 2 here],EC50,[7],170 nM
COc1ccc2nc3c(nc2c1)O[C@@H]1C[C@H]2C(=O)N[C@]4(C(=O)NS(=O)(=O)C5(C)CC5)C[C@H]4/C=C\CCCCC[C@H](NC(=O)O[C@@H]4CCC[C@H]4CCCCC3)C(=O)N2C1.[K+],Cmax,[11],70 nM
same,AUC(0-inf),[12],2.4 µM·h
Cc1[nH]nc2c1[C@@]1(C(C#N)=C(N)O2)c2cc(N3CCC(CC(=O)O)CC3)cc(F)c2CC1(C)C,IC50,[3],2510 nM
COc1ccc(Cn2nnc3c2[C@]2(CC[C@H]3OC(=O)NC(C)C)CO2)cc1,EC50,[13],94 nM
O=C1Nc2ccc(Cl)cc2C12Cc1ccccc1B(O)O2 (centres undefined),logP,[1],< 4
same,Stability,[2],> 80%
O=C1Nc2cc(C(F)(F)F)ccc2C12Cc1ccccc1B(O)O2 (centres undefined),logP,[1],< 4
same,Stability,[2],> 80%
